Test results: paper PMC3692405, “Disease-associated mutations in CNGB3 promote cytotoxicity in photoreceptor-derived cells” (Molecular Vision, 2013)
Like-named read-outs stand apart in the source and are kept apart here.

Target: T1, WT human CNGA3 plus WT CNGB3 heteromeric channels (Homo sapiens, UniProt Q16281+Q9NQW8)
T1 construct: expressed in transfected cells; host or cells: Xenopus laevis oocytes injected with cRNA transcribed from pGEMHE constructs
T1 sequence (Q16281 1-694): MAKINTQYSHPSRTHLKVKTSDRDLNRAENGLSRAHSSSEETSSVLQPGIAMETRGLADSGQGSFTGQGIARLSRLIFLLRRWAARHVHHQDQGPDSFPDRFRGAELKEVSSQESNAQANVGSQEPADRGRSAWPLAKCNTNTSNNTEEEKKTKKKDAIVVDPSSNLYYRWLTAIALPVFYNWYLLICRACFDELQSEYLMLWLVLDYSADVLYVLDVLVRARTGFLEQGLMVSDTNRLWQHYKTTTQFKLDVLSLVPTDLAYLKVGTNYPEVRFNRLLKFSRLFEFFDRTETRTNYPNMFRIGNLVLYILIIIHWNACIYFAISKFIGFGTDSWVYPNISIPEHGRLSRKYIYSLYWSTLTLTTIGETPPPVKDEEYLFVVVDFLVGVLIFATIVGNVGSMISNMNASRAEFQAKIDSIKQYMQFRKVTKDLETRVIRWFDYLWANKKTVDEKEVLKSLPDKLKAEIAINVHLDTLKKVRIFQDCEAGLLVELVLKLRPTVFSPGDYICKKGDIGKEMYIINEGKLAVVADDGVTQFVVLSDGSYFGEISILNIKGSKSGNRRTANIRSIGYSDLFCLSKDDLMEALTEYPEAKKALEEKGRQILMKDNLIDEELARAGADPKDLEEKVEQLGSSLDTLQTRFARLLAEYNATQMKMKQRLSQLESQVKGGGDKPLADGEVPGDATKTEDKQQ
T1 sequence (Q9NQW8 1-809): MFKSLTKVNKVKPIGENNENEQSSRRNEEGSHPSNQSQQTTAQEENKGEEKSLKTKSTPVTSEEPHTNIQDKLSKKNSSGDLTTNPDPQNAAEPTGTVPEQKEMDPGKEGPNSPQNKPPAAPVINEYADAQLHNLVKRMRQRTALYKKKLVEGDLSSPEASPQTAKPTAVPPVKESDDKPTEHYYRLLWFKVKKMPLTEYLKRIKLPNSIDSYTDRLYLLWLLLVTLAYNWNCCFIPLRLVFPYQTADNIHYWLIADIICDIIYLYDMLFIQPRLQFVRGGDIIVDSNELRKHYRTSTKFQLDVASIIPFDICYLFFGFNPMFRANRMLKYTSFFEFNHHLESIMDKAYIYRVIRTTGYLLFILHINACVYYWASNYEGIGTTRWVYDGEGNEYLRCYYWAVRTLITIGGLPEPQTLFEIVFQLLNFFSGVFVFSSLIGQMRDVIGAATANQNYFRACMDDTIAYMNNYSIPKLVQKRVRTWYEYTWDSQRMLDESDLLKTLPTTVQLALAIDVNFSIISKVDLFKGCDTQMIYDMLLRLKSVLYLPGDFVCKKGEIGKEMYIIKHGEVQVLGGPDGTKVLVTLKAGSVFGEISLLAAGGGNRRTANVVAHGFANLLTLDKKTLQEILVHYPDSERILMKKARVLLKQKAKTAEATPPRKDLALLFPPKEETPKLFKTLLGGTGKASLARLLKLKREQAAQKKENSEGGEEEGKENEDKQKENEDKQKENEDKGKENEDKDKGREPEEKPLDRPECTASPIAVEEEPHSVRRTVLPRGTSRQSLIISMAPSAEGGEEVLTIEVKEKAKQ
Test: Inside-out patch-clamp recording of channels expressed in Xenopus oocytes (WT heteromeric)
Type: biochemical
Experimental: For heterologous expression in Xenopus laevis oocytes, identical amounts of cDNA were linearized using SphI or NheI, and capped cRNA was transcribed in vitro using the T-7 RNA polymerase mMESSAGE mMACHINE® kit (Ambion, Austin, TX). cRNA concentrations and relative amounts were determined by denaturing gel electrophoresis and KODAK 1D image analysis software (Rochester, NY), as well as by spectrophotometry. […] Oocytes were incubated in ND96 (96 mM NaCl, 2 mM KCl, 1.8 mM CaCl2, 1 mM MgCl2, and 5 mM HEPES, pH 7.6, supplemented with 10 μg/ml gentamycin).
Two to seven days after microinjection of cRNA, patch-clamp experiments were performed using the inside-out configuration with an Axopatch 200B amplifier (Axon Instruments, Foster City, CA). Recordings were made at 20–23 °C. Data were acquired using Pulse software (HEKA Elektronik, Lambrecht, Germany). Current traces were elicited by voltage steps from a holding potential of 0 mV to +80 mV, then to −80 mV and back to 0 mV. Initial pipette resistances were 0.4–0.8 megaohms. Intracellular and extracellular solutions contained 130 mM NaCl, 0.2 mM EDTA, and 3 mM HEPES (pH 7.2). Intracellular solutions were exchanged using an RSC-160 rapid solution changer (Molecular Kinetics, Indianapolis, IN). Currents in the absence of cyclic nucleotides were subtracted. For channel activation by CPT-cGMP or CPT-cAMP, dose–response data were fitted with the Hill equation, I/Imax=([cNMP]^h/(K1/2^h + [cNMP]^h)), where I is the current amplitude at +80 mV, Imax is the maximum current elicited by saturating concentration of ligand, [cNMP] is the ligand concentration, K1/2 is the apparent ligand affinity, and h is the Hill slope. We measured sensitivity to block by L-cis-diltiazem (RBI, Natick, MA) applied to the intracellular face of the patch in the presence of 0.1 μM CPT-cGMP. Data were fit with a modified Hill equation in the form I blocker/I=(K1/2^h/(K1/2^h + [blocker]^h)). Data were analyzed using Igor (Wavemetrics, Lake Oswego, OR), SigmaPlot, and SigmaStat (Systat Software Inc., San Jose, CA). All values are reported as the mean±standard error of the mean of n experiments unless otherwise indicated. Statistical significance was determined using a Student t test or Mann–Whitney rank sum test, and a p value of <0.05 was considered significant.

| Compound | relative agonist efficacy Imax, CPT-cAMP/Imax, CPT-cGMP (+80 mV, CPT-cAMP 100 μM vs CPT-cGMP 4 μM, mean±SEM, n=10) | Hill slope h, CPT-cAMP activation (Hill fit, mean±SEM, n=10) | EC50 (Hill fit, mean±SEM, n=10, read-out: apparent affinity K1/2, CPT-cAMP (channel activation)) | Hill slope h, CPT-cAMP, representative dose-response (representative patch, Figure 5A) | EC50 (representative patch, Figure 5A, read-out: K1/2,CPT-cAMP, representative dose-response) | Hill slope h, CPT-cGMP activation (+80 mV, Hill fit, mean±SEM, n=13) | EC50 (+80 mV, Hill fit, mean±SEM, n=13, read-out: apparent CPT-cGMP affinity K1/2, CPT-cGMP (channel activation)) | maximum patch current density (Imax/area) (+80 mV, saturating CPT-cGMP (4 μM), mean±SEM, n=13) | Hill slope h, CPT-cGMP, representative dose-response (representative patch, Figure 1B) | EC50 (representative patch, Figure 1B, read-out: K1/2,CPT-cGMP, representative dose-response) | potency relative to unmodified cGMP for channel activation (unmodified cGMP values from refs 19, 26) |
| --- | --- | --- | --- | --- | --- | --- | --- | --- | --- | --- | --- |
| Nc1ncnc2c1nc(Sc1ccc(Cl)cc1)n2[C@@H]1O[C@@H]2COP(=O)(O)O[C@H]2[C@H]1O [CPT-cAMP, CPT-adenosine 3′,5′-cyclic monophosphate] | 0.25±0.03 | 1.7±0.1 | 28.1 ± 2.6 µM | 1.4 | 28.3 µM |  |  |  |  |  |  |
| Nc1nc2c(nc(Sc3ccc(Cl)cc3)n2[C@@H]2O[C@@H]3COP(=O)(O)O[C@H]3[C@H]2O)c(=O)[nH]1 [CPT-cGMP, 8-(4-chlorophenylthio) guanosine 3′,5′-cyclic monophosphate] |  |  |  |  |  | 1.5±0.05 | 0.254 ± 0.0181 µM | 55.1±10.9 pA/μm^2 | 1.5 | 0.248 µM | 80–100 fold |
